In one assay the test system is membrane PR in HAEC. The experiment in a line: Fluorescent membrane labeling of HAEC at 4° C. It counts as cell-based, human. Particulars: for fluorescent membrane labeling / membrane binding: 4° C. (cells impermeable), FIG. 13A. Here is the method: Fluorescent membrane labeling studies were performed with both ligand (progesterone conjugated to BSA) and with antibody C19 at 4° C. Experimentation at cold temperatures keeps the cells impermeable; thus, ligand or antibody cannot enter the cell, and specific binding is restricted to the membrane.
In FIG. 13B, a light microscopy image of the same field as in FIG. 13A is shown to illustrate the position of the cells.
Controls used for these experiments include exposure with BSA and the fluorescent tag in the absence of progesterone for the ligand binding study and use of peptide neutralization for the antibody labeling study. […] Approximately 10% of all cells show positive staining. This percentage has been found by other investigators in experiments with sperm. The reason for this low percentage of staining is not yet clear. One possibility includes differential expression of the membrane PR during the cell cycle.

Assay [1] relates to Aortic endothelial cells (HAEC). Kind of assay: Calcium response of HAEC to progesterone (fluo-3AM fluorescence). The note with it: progesterone 50 μM. It counts as cell-based, human. Here is the method: Aortic endothelial cells were cultured in 100 cm petri dishes. All solutions including washes contained probenecid, a chemical that minimizes leakage of fluorophore from the cells. The medium contained BSA, fluo-3-[…] (fluo-3AM), and pluronic F-127, an agent that facilitates diffusion of fluorophore through cell membranes. The cells were incubated for 1 hour at RT. Following incubation, the cells were washed several times and then treated with trypsin. After washing, the cells were enumerated by counting in a hemacytometer and the cell number was adjusted to a predetermined value. Progesterone (50 μM) was added to cell suspensions just prior to fluorescence measurement. An aliquot of the cell suspension was placed in a cuvette and measured in a SLM-8000C fluorescence spectrophotometer. The cells were excited at 504 nm and emitted fluorescence measured at 526 nm. The data (not shown) establishes an immediate 1.5-fold increase in calcium influx with exposure to progesterone. Since this reaction occurred within 2-3 seconds, it is clear that this is a nongenomic response to a sex steroid.

Turning to “progesterone conjugated to BSA: progesterone-conjugated bovine serum albumin-fluorescein isothiocyanate (Sigma), ligand for fluorescent membrane labeling”, the “fluorescent membrane labeling / membrane binding” value in the assay with membrane PR in HAEC is “staining of the membrane is well seen”.
Take `CC(=O)[C@H]1CC[C@H]2[C@@H]3CCC4=CC(=O)CC[C@]4(C)[C@H]3CC[C@]12C` [progesterone, Progesterone]: the “increase in calcium influx” value in assay [1] (HAEC suspension, fluo-3AM, excitation 504 nm, emission 526 nm, data not shown) is given as 1.5 fold. In addition, in assay [1] (HAEC), the “time within which the calcium reaction occurred” value was in the range of 2 to 3 s. The “fluorescent membrane labeling / membrane binding” value with membrane PR in HAEC is given as “specific membrane binding”. In the assay on membrane PR in HAEC (fluorescent membrane labeling, 4° C., FIGS. 13A-13D), the “cells showing positive staining for the membrane PR” value is listed as “Approximately 10%”.

These data come from patent US20020197670A1, “Membrane associated progesterone receptor” (priority 2001, published 2002).
